Measurements from patent US8765722B2 (priority 2009, dated 2014).

Test system: human hepatoma Huh-7 cell line harboring a HCV replicon
Test: microbe, parasite or virus in culture
Format: cell-based
Details: for EC50 / inhibition at 2 µM: Hepatitis C virus; for EC50: Huh-7; for inhibition at 2 µM: Huh-7, 72 h, read-out: % inhibition at 2 μM

Row | Compound | % inhibition at 2 μM [%] | EC50 [nM] | inhibition at 2 µM [%]
1 | 5-(3,3-Dimethyl-but-1-ynyl)-3-[[trans-4-(dimethyl-phosphinoyloxy)-cyclobutyl]-cis-4-methyl-cyclohexanecarbonyl)-amino]-thiophene-2-carboxylic acid [Compound 17] | 99.5 | – | –
2 | CC(C)(C)C#Cc1cc(N(C(=O)[C@H]2CC[C@H](C)CC2)[C@H]2CC[C@H](OP(C)(C)=O)CC2)c(C(=O)O)s1 [Compound 1, 5-(3,3-Dimethyl-but-1-ynyl)-3-[[trans-4-(dimethyl-phosphinoyloxy)-cyclohexyl]-(trans-4-methyl-cyclohexanecarbonyl)-amino]-thiophene-2-carboxylic acid] | – | ≤ 500 | 99.8
3 | CCP(=O)(CC)O[C@H]1CC[C@H](N(c2cc(C#CC(C)(C)C)sc2C(=O)O)C(=O)[C@H]2CC[C@H](C)CC2)CC1 [Compound 2, 3-[[trans-4-(Diethyl-phosphinoyloxy)-cyclohexyl]-(trans-4-methyl-cyclohexanecarbonyl)-amino]-5-(3,3-dimethyl-but-1-ynyl)-thiophene-2-carboxylic acid] | – | ≤ 500 | 99.8
4 | CC(C)(C)C#Cc1cc(N(C(=O)[C@H]2CC[C@H](C)CC2)[C@H]2CC[C@H](OP(C)(=O)c3ccccc3)CC2)c(C(=O)O)s1 (stereo partly drawn) [Compound 3, 5-(3,3-Dimethyl-but-1-ynyl)-3-{(trans-4-methyl-cyclohexanecarbonyl)-[trans-4-(methyl-phenyl-phosphinoyloxy)-cyclohexyl]-amino}-thiophene-2-carboxylic acid] | – | ≤ 500 | 99.6
5 | CC(C)(C)C#Cc1cc(N(C(=O)[C@H]2CC[C@H](C)CC2)[C@H]2CC[C@H](OP(=O)(c3ccccc3)c3ccccc3)CC2)c(C(=O)O)s1 [Compound 4, 5-(3,3-Dimethyl-but-1-ynyl)-3-[[trans-4-(diphenyl-phosphinoyloxy)-cyclohexyl]-(trans-4-methyl-cyclohexanecarbonyl)-amino]-thiophene-2-carboxylic acid] | – | – | 94.7
6 | CC(C)(C)C#Cc1cc(N(C(=O)[C@H]2CC[C@H](C)CC2)[C@H]2CC[C@@H](OP(C)(C)=O)CC2)c(C(=O)O)s1 [Compound 5, 5-(3,3-Dimethyl-but-1-ynyl)-3-[[cis-4-(dimethyl-phosphinoyloxy)-cyclohexyl]-(trans-4-methyl-cyclohexanecarbonyl)-amino]-thiophene-2-carboxylic acid] | – | ≤ 500 | 100
7 | CC(C)(C)C#Cc1cc(N(C(=O)[C@H]2CC[C@H](C(F)(F)F)CC2)[C@H]2CC[C@H](OP(C)(C)=O)CC2)c(C(=O)O)s1 [Compound 6, 5-(3,3-Dimethyl-but-1-ynyl)-3-[[trans-4-(dimethyl-phosphinoyloxy)-cyclohexyl]-(trans-4-trifluoromethyl-cyclohexanecarbonyl)-amino]-thiophene-2-carboxylic acid] | – | – | 93.2
8 | CP(C)(=O)O[C@H]1CC[C@H](N(c2cc(-c3ccc(NC(=O)c4cscn4)cc3)sc2C(=O)O)C(=O)[C@H]2CC[C@H](C)CC2)CC1 [Compound 7, 3-[[trans-4-(Dimethyl-phosphinoyloxy)-cyclohexyl]-(trans-4-methyl-cyclohexanecarbonyl)-amino]-5-{4-[(thiazole-4-carbonyl)-amino]-phenyl}-thiophene-2-carboxylic acid] | – | ≤ 500 | 99.8
9 | CP(C)(=O)O[C@H]1CC[C@H](N(c2cc(-c3ccc(-c4cc5ncccn5n4)cc3)sc2C(=O)O)C(=O)[C@H]2CC[C@H](C)CC2)CC1 [Compound 8] | – | ≤ 500 | 99.8
10 | COP1(=O)CCC(NC2CCC(N(c3cc(C#CC(C)(C)C)sc3C(=O)O)C(=O)[C@H]3CC[C@H](C)CC3)CC2)CC1 (stereo partly drawn) [Compound 9, 5-(3,3-Dimethyl-but-1-ynyl)-3-[[4-(1-methoxy-1-oxo-1λ^5-phosphinan-4-ylamino)-cyclohexyl]-(trans-4-methyl-cyclohexanecarbonyl)-amino]-thiophene-2-carboxylic acid] | – | ≤ 500 | 99.9
11 | COP1(=O)CCC(N(c2cc(C#CC(C)(C)C)sc2C(=O)O)C(=O)[C@H]2CC[C@H](C)CC2)CC1 (stereo partly drawn) [Compound 11, 5-(3,3-Dimethyl-but-1-ynyl)-3-[(1-methoxy-1-oxo-1 λ^5phosphinan-4-yl)-(trans-4-methyl-cyclohexanecarbonyl)-amino]-thiophene-2-carboxylic acid] | – | ≤ 500 | 99.8
12 | CC(C)(C)C#Cc1cc(N(C(=O)[C@H]2CC[C@H](C)CC2)C2CCP(=O)(O)CC2)c(C(=O)O)s1 (stereo partly drawn) [Compound 12, 5-(3,3-Dimethyl-but-1-ynyl)-3[(1-hydroxy-1-oxo-1 λ^5phosphinan-4-yl)-(trans-4-methyl-cyclohexanecarbonyl)-amino]-thiophene-2-carboxylic acid] | – | – | 98.2
13 | CCOP(C)(=O)C1(O)CCC(N(c2cc(C#CC(C)(C)C)sc2C(=O)O)C(=O)[C@H]2CC[C@H](C)CC2)CC1 (stereo partly drawn) [Compound 13, 5-(3,3-dimethylbut-1-ynyl)-3-((1r,4r)-N-(4-ethoxy(methyl)phosphoryl)-4-hydroxycyclohexyl)-(trans-4-methylcyclohexanecarboxamido)thiophene-2-carboxylic acid] | – | ≤ 500 | 99.8
14 | CCOP(C)(=O)C1(OC)CCC(N(c2cc(C#CC(C)(C)C)sc2C(=O)O)C(=O)[C@H]2CC[C@H](C)CC2)CC1 (stereo partly shown) [Compound 14] | – | ≤ 500 | 99.8
15 | CC(C)(C)C#Cc1cc(N(CCOP(C)(C)=O)C(=O)[C@H]2CC[C@H](C)CC2)c(C(=O)O)s1 [Compound 15, 5-(3,3-Dimethyl-but-1-ynyl)-3-[[2-(dimethyl-phosphinoyloxy)-ethyl]-(trans-4-methyl-cyclohexanecarbonyl)-amino]-thiophene-2-carboxylic acid] | – | ≤ 500 | 98.9
16 | CCP(=O)(CC)OCCN(c1cc(C#CC(C)(C)C)sc1C(=O)O)C(=O)[C@H]1CC[C@H](C)CC1 [Compound 16, 3-[[2-(Diethyl-phosphinoyloxy)-ethyl]-(trans-4-methyl-cyclohexanecarbonyl)-amino]-5-(3,3-dimethyl-but-1-ynyl)-thiophene-2-carboxylic acid] | – | ≤ 500 | 99.5
17 | CCOP(C)(=O)CCN(c1cc(C#CC(C)(C)C)sc1C(=O)O)C(=O)[C@H]1CC[C@H](C)CC1 (stereo partly shown) [Compound 18, 5-(3,3-Dimethyl-but-1-ynyl)-3-[[2-(ethoxy-methyl-phosphinoyl)-ethyl]-(4-methyl-cyclohexanecarbonyl)-amino]thiophene-2-carboxy-lic acid] | – | ≤ 500 | 98.8
18 | CC(C)(C)C#Cc1cc(N(CCP(C)(=O)O)C(=O)[C@H]2CC[C@H](C)CC2)c(C(=O)O)s1 [Compound 19, 5-(3,3-dimethyl-but-1-ynyl)-3-[[2-(hydroxy-methyl-phosphinoyl)-ethyl]-(4-methyl-cyclohexanecarbonyl)-amino]-thiophene-2-carboxylic acid] | – | ≤ 500 | 94.2
19 | CCOP(C)(=O)Cc1ccc(-c2cc(N(C(=O)[C@H]3CC[C@H](C)CC3)C3CCC4(CC3)OCCO4)c(C(=O)O)s2)cc1 (stereo partly shown) [Compound 20, 3-[(1,4-Dioxa-spiro[4.5]dec-8-yl)-(4-methyl-cyclohexanecarbonyl)-amino]-5-[4-(ethoxy-methyl-phosphinoylmethyl)-phenyl]-thiophene-2-carboxylic acid] | – | – | 56.3
20 | CCOP(C)(=O)Cc1ccc(-c2cc(N(C(=O)[C@H]3CC[C@H](C)CC3)[C@H]3CC[C@H](O)CC3)c(C(=O)O)s2)cc1 (stereo partly shown) [Compound 21] | – | – | 79.2
21 | CP(=O)(O)Cc1ccc(-c2cc(N(C(=O)[C@H]3CC[C@H](C)CC3)[C@H]3CC[C@H](O)CC3)c(C(=O)O)s2)cc1 [Compound 22] | – | – | 12.3
22 | CC(C)(C#Cc1cc(N(C(=O)[C@H]2CC[C@H](C)CC2)[C@H]2CC[C@H](O)CC2)c(C(=O)O)s1)CCOP(C)(C)=O [Compound 23] | – | ≤ 500 | –
23 | CCOP(=O)(CCNC1CCC(N(c2cc(C#CC(C)(C)C)sc2C(=O)O)C(=O)[C@H]2CC[C@H](C)CC2)CC1)OCC (stereo partly shown) [Compound 24, 3-(1,4-N-(4-(2-(diethoxyphosphoryl)ethylamino)cyclohexyl)-4-methylcyclohexanecarboxamido)-5-(3,3-dimethylbut-1-ynyl)thiophene-2-carboxylic acid] | – | ≤ 500 | –
